Laboratory results taken from PMC12180986, “Molecular basis for differential PIP2-mediated association between vinculin and its splice isoform metavinculin” (The Journal of Biological Chemistry, 2025).
Substitutions are numbered along the chain they refer to.

Columns and labels:
Assay type in all cases: binding
[1] = target: T1, Vt (vinculin tail domain) (Gallus gallus, UniProt P12003); assay: high-speed lipid cosedimentation with LUVs, protein titration; conditions: protein titrated at fixed 10% PIP2 in PE/PC/PS/PIP2 LUVs; Kd in protein concentration; 40 mM Hepes, 150 mM NaCl, pH 7.4, room temperature; read-out: Protein concentration (μM) / app Kd
T1 construct: gene VCL; tail domain residues 879-1066; N-terminal His-tag removed by TEV; pQlinkH; E. coli BL21(DE3)
T1 sequence (P12003 879-1066 isoform P12003-1): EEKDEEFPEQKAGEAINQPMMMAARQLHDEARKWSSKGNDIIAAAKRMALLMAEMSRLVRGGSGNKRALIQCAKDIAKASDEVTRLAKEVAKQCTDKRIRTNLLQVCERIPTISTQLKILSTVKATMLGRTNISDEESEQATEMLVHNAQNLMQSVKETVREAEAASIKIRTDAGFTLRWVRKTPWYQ
Source text: high-speed lipid cosedimentation with LUVs, protein titration on Vt (vinculin tail domain)

[2] = target: T2, MVt (metavinculin tail domain) (Homo sapiens, UniProt P18206); assay: high-speed lipid cosedimentation with LUVs, PIP2 gradient; conditions: 10 μM protein, PE/PC/PS LUVs with 0-30 mol% PIP2; one-site fit; pH 7.4, room temperature; the table also has a μM column, which looks inconsistent with the lipid amount
T2 construct: gene VCL; tail domain residues 879-1134; N-terminal His-tag removed by TEV; 2HR-T vector; E. coli BL21(DE3)
T2 sequence (P18206 879-1134): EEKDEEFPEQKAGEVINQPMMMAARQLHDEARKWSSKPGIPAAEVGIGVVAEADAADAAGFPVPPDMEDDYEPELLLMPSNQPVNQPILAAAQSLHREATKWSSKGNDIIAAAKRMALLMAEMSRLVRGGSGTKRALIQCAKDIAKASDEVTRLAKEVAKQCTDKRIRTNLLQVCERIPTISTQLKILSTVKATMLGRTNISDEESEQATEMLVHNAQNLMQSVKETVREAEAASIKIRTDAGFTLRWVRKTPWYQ
Source text: (§1) high-speed lipid cosedimentation with LUVs, PIP2 gradient on MVt (metavinculin tail domain)

[3] = target: T3, MVt (metavinculin tail domain) (Homo sapiens, UniProt P18206, A934V); assay: as above; conditions: 10 μM protein, PE/PC/PS LUVs with 0-30 mol% PIP2; one-site fit; pH 7.4, room temperature; the table also has a μM column, which looks inconsistent with the lipid amount
T3 construct: gene VCL; tail domain residues 879-1134; N-terminal His-tag removed by TEV; 2HR-T vector; E. coli BL21(DE3)
T3 sequence (P18206 879-1134 A934V): T2 sequence (P18206 879-1134) with A56V
Source text: as §1

[4] = target: T2, MVt (metavinculin tail domain); assay: high-speed lipid cosedimentation with LUVs, protein titration; conditions: protein titrated at fixed 10% PIP2 in PE/PC/PS/PIP2 LUVs; Kd in protein concentration; 40 mM Hepes, 150 mM NaCl, pH 7.4, room temperature; read-out: Protein concentration (μM) / app Kd
Source text: high-speed lipid cosedimentation with LUVs, protein titration on MVt (metavinculin tail domain)

[5] = target: T1, Vt (vinculin tail domain); assay: high-speed lipid cosedimentation with LUVs, PIP2 gradient; conditions: 10 μM protein, PE/PC/PS LUVs with 0-30 mol% PIP2; one-site fit; pH 7.4, room temperature; the table also has a μM column, which looks inconsistent with the lipid amount
Source text: high-speed lipid cosedimentation with LUVs, PIP2 gradient on Vt (vinculin tail domain)

- Kd [1]: 4.94 ± 1.56 µM
- PIP2 (%) / app Kd [2]: 9.20 ± 1.80 % PIP2 (mol%) in liposomes
- PIP2 (%) / app Kd [3]: 9.94 ± 2.52 % PIP2 (mol%) in liposomes
- Kd [4]: 4.66 ± 1.62 µM
- PIP2 (%) / app Kd [5]: 8.89 ± 1.25 % PIP2 (mol%) in liposomes
Substance: L-α-phosphatidylinositol-4,5-bisphosphate [PIP2]
